From patent US20260317319A1, “NOVEL ERGOLINES AND METHODS OF TREATING MOOD DISORDERS” (Gilgamesh Pharma Inc., priority 2023, published 2026)
pEC50, pKi: −log10 of the molar value. Like-named read-outs stand apart in the source and are kept apart here.

What was measured:
5-HT2A receptor = 5-HT2A receptor (Homo sapiens, UniProt P28223); assay: biochemical; format: binding; set-up: expressed in transfected cells; host or cells: HEK293, stably transfected; conditions: [3H]ketanserin 1 nM; HEK293 stable cell line; 1 h, 25 °C
Chain of 5-HT2A receptor (P28223 whole entry): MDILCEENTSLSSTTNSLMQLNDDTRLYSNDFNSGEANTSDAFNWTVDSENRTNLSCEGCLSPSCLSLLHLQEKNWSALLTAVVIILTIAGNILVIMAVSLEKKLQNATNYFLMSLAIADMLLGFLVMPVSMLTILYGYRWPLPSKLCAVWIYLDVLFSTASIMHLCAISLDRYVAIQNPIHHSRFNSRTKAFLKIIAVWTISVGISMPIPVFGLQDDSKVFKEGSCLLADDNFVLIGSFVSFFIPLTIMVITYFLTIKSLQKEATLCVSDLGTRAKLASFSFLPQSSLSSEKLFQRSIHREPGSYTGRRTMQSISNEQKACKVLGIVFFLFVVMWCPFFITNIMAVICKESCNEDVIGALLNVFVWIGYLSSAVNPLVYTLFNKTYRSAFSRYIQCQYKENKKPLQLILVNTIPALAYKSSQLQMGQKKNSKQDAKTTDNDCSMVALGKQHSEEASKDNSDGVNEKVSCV
In short: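 Test compounds competed with [^3H]ketanserin for receptor binding, and affinity was derived from the radioligand displacement.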

5-HT2C receptor = biological target: T1, 5-HT2C receptor (Homo sapiens, UniProt P28335); assay: cell-based; conditions: for Emax: read-out: 5-HT2C % Act @ Max Dose; for pEC50: read-out: 5-HT2C EC50
T1 sequence (P28335 33-458): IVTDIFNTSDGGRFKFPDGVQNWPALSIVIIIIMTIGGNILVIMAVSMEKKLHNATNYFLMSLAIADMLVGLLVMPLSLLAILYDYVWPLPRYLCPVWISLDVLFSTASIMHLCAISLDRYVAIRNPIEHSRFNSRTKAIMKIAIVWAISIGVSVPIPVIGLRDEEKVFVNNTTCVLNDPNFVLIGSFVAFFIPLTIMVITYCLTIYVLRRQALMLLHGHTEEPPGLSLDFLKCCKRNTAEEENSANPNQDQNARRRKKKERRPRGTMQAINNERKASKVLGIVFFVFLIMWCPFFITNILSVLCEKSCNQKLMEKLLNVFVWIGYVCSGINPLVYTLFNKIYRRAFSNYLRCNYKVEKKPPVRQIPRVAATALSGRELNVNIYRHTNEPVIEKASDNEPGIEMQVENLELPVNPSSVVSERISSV

C57BL/6 mice = assay: Mouse head twitch response (HTR) assay (observer-counted); format: in vivo; conditions: SC, 20 min, most efficacious dose
Procedure: Agonists of the 5-HT2A receptor are well known to induce this effect in rodents and the potency of this HTR is correlated with hallucinogenic potency in humans.
Animals. Adult male C57BL/6 mice, aged 6-8 weeks (body weight 20-25 g) were used in this experiment. Animals were housed under controlled temperatures and 12-hour light/dark cycles (lights on between 07:00-19:00 h), with ad libitum food and water. This study was carried out in strict accordance with the requirements of the Committee for the Purpose of Control and Supervision of Experiments on Animals (CPCSEA), India. All efforts were made to minimize suffering.
Procedure. Mice were administered one dose of the drug and immediately placed into a small open field for behavioral observation. Animals were observed continuously for 20 mins and the number of head twitches (HTs) were counted by an observer blind to the treatment condition.
Statistical Analysis. The data points shown are the mean±standard error of the mean (SEM). Analysis was performed using GraphPad Prism 6. Curves were fit using a non-linear gaussian distribution to calculate ED50 and Emax values.
Additional disclosed compounds were tested in the mouse head twitch response (HTR) assay according to the procedure described in Example 57 (administered SC). […] Lastly, compounds with much larger benzyl and phenethyl substituents on the amine nitrogen (e.g., 10 and 11) were low efficacy in this assay, consistent with their bias toward arrestin signaling (see Example 55).

[1] = agonist, Ca2+ flux, Eurofins DiscoverX protocol, max dose
[2] = agonist, Ca2+ flux, Eurofins DiscoverX protocol

Row | Structure (SMILES) | pKi (5-HT2A receptor) | further results
1 | CCN(CC)C(=O)[C@@H]1C=C2c3cccc4[nH]cc(c34)C[C@H]2N(Cc2ccon2)C1 [Compound 70, (6aR,9R)—N,N-diethyl-7-(isoxazol-3-ylmethyl)-4,6,6a,7,8,9-hexahydroindolo[4,3-fg]quinoline-9-carboxamide] | 7.87 | –
2 | CCN(CC)C(=O)[C@@H]1C=C2c3cccc4[nH]cc(c34)C[C@H]2N(Cc2cccc(OC)c2)C1 [Compound 18, (6aR,9R)—N,N-diethyl-7-(3-methoxybenzyl)-4,6,6a,7,8,9-hexahydroindolo[4,3-fg]quinoline-9-carboxamide] | – | Emax (5-HT2C receptor; [1]): 7.28%; pEC50 (5-HT2C receptor; [2]): < 5.00
3 | CCN(CC)C(=O)[C@@H]1C=C2c3cccc4[nH]cc(c34)C[C@H]2N(Cc2cccc(C#N)c2)C1 [Compound 76, (6aR,9R)—N,N-diethyl-7-(3-cyanobenzyl)-4,6,6a,7,8,9-hexahydroindolo[4,3-fg]quinoline-9-carboxamide] | 7.01 | –
4 | CCN(C)C(=O)[C@@H]1C=C2c3cccc4[nH]cc(c34)C[C@H]2N(Cc2ccccc2)C1 [Compound 85, (6aR,9R)-7-benzyl-N-ethyl-N-methyl-4,6,6a,7,8,9-hexahydroindolo[4,3-fg]quinoline-9-carboxamide] | 8.90 | –
5 | CCN(CC)C(=O)[C@@H]1C=C2c3cccc4[nH]cc(c34)C[C@H]2N(Cc2cocn2)C1 [Compound 73, (6aR,9R)—N,N-diethyl-7-(oxazol-4-ylmethyl)-4,6,6a,7,8,9-hexahydroindolo[4,3-fg]quinoline-9-carboxamide] | 8.09 | –
6 | CCN(CC)C(=O)[C@@H]1C=C2c3cccc4[nH]cc(c34)C[C@H]2N(Cc2cccc(O)c2)C1 [Compound 62, (6aR,9R)—N,N-diethyl-7-(3-hydroxybenzyl)-4,6,6a,7,8,9-hexahydroindolo[4,3-fg]quinoline-9-carboxamide] | 8.16 | –
7 | CCN(CC)C(=O)[C@@H]1C=C2c3cccc4[nH]cc(c34)C[C@H]2N(Cc2ccc(Cl)cc2)C1 [Compound 50, (6aR,9R)-7-(4-chlorobenzyl)-N,N-diethyl-4,6,6a,7,8,9-hexahydroindolo[4,3-fg]quinoline-9-carboxamide] | 8.38 | –
8 | CC[C@@H](C)NC(=O)[C@@H]1C=C2c3cccc4[nH]cc(c34)C[C@H]2N(C)C1 [Int8] | – | Emax (5-HT2C receptor): 98.2%; HTR at most efficacious dose (bound) (C57BL/6 mice): < 15 HTR
9 | CCN(CC)C(=O)[C@@H]1C=C2c3cccc4[nH]cc(c34)C[C@H]2N(Cc2ccc(OC)cc2)C1 [Compound 19, (6aR,9R)—N,N-diethyl-7-(4-methoxybenzyl)-4,6,6a,7,8,9-hexahydroindolo[4,3-fg]quinoline-9-carboxamide] | – | Emax (5-HT2C receptor; [1]): 1.7%; pEC50 (5-HT2C receptor; [2]): < 5.00
10 | CCN(CC)C(=O)[C@@H]1C=C2c3cccc4[nH]cc(c34)C[C@H]2N(Cc2ccccc2)C1 [Compound 82, (6aR,9R)-7-benzyl-N,N-diethyl-4,6,6a,7,8,9-hexahydroindolo[4,3-fg]quinoline-9-carboxamide] | 8.71 | –
11 | CCN(CC)C(=O)[C@@H]1C=C2c3cccc4[nH]cc(c34)C[C@H]2N(Cc2ccc(F)cc2)C1 [Compound 49, (6aR,9R)—N,N-diethyl-7-(4-fluorobenzyl)-4,6,6a,7,8,9-hexahydroindolo[4,3-fg]quinoline-9-carboxamide] | 8.90 | –
12 | C=CCN1C[C@H](C(=O)N[C@H](C)CC)C=C2c3cccc4[nH]cc(c34)C[C@H]21 [Compound 8, (6aR,9R)-7-allyl-N—((R)-sec-butyl)-4,6,6a,7,8,9-hexahydroindolo[4,3-fg]quinoline-9-carboxamide] | – | Emax (5-HT2C receptor; [1]): 108%; HTR at most efficacious dose (bound) (C57BL/6 mice): > 15 HTR
